Test results published in patent US12655116B2, “Substituted isophthalic acid diamides” (Bayer Aktiengesellschaft, priority 2020, dated 2026).

Key:
ABUTH [1] = assay: Pre-emergence herbicidal action against ABUTH; assay type: in vivo, Abutilon theophrasti; settings: Abutilon theophrasti, 504 h
In short: (§1)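 Herbicidal effect was assessed 3 weeks after treatment by visual comparison with untreated controls, 100% denoting dead plants. Aqueous WP or EC preparations had been applied at 600 to 800 l/ha with 0.2% wetting agent to the soil covering freshly sown seeds.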

ALOMY [2] = assay: Pre-emergence herbicidal action against ALOMY; assay type: in vivo, Alopecurus myosuroides; settings: Alopecurus myosuroides, 504 h; 80 g/ha, pre-emergence, scored visually after 3 weeks vs untreated controls (100% = plants have died, 0% = like control plants)
In short: as §1

AMARE [3] = assay: Pre-emergence herbicidal action against AMARE; assay type: in vivo, Amaranthus retroflexus; settings: Amaranthus retroflexus, 504 h, scored visually after 3 weeks vs untreated controls, 100% = plants have died, 0% = like control plants
In short: as §1

AVEFA = assay: Pre-emergence herbicidal action against AVEFA; assay type: in vivo, Avena fatua; settings: Avena fatua, 504 h; 80 g/ha, pre-emergence
In short: as §1

ECHCG [4] = assay: Pre-emergence herbicidal action against ECHCG; assay type: in vivo, Echinochloa crus-galli; settings: Echinochloa crus-galli, 504 h, 80 g/ha
In short: as §1

HORMU = assay: Pre-emergence herbicidal action against HORMU; assay type: in vivo, Hordeum murinum; settings: Hordeum murinum, 504 h; 80 g/ha, pre-emergence
In short: as §1

MATIN = assay: Pre-emergence herbicidal action against MATIN; assay type: in vivo, Matricaria inodora; settings: Tripleurospermum inodorum, 504 h
In short: as §1

PHBPU [5] = assay: Pre-emergence herbicidal action against PHBPU; assay type: in vivo, Pharbitis purpurea; settings: Ipomoea purpurea, 504 h, dosage 80 g/ha
In short: as §1

SETVI [6] = assay: Pre-emergence herbicidal action against SETVI; assay type: in vivo, Setaria viridis; settings: Setaria viridis, 504 h
In short: as §1

STEME [7] = assay: Pre-emergence herbicidal action against STEME; assay type: in vivo, Stellaria media; settings: Stellaria media, 504 h, dosage 80 g/ha
In short: as §1

VERPE [8] = assay: Pre-emergence herbicidal action against VERPE; assay type: in vivo, Veronica persica; settings: Veronica persica, 504 h
In short: as §1

VIOTR [9] = assay: Pre-emergence herbicidal action against VIOTR; assay type: in vivo, Viola tricolor; settings: Viola tricolor, 504 h, dosage 80 g/ha
In short: as §1

DIGSA [10] = assay: Pre-emergence herbicidal action against DIGSA; assay type: in vivo, Digitaria sanguinalis; settings: Digitaria sanguinalis, 504 h
In short: as §1

ABUTH [11] = assay: Post-emergence herbicidal action against ABUTH; assay type: in vivo, Abutilon theophrasti; settings: Abutilon theophrasti, 504 h, visual assessment about 3 weeks after treatment vs untreated controls
In short: (§2)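 Post-emergence greenhouse test; one-leaf stage, 2–3 wk post-sowing, sandy loam. Foliar spray of WP/EC in water, 600–800 l/ha, +0.2% wetting agent. Visual % action at ~3 wk vs untreated (100% = plants dead).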

ALOMY [12] = assay: Post-emergence herbicidal action against ALOMY; assay type: in vivo, Alopecurus myosuroides; settings: Alopecurus myosuroides, 504 h, dosage 20 g/ha, visual assessment about 3 weeks after treatment vs untreated controls
In short: as §2

AMARE [13] = assay: Post-emergence herbicidal action against AMARE; assay type: in vivo, Amaranthus retroflexus; settings: Amaranthus retroflexus, 504 h, 20 g/ha, visual assessment about 3 weeks after treatment, 100% = plants have died, 0% = like control plants
In short: as §2

ECHCG [14] = assay: Post-emergence herbicidal action against ECHCG; assay type: in vivo, Echinochloa crus-galli; settings: Echinochloa crus-galli, 504 h, dosage 20 g/ha
In short: as §2

LOLRI = assay: Post-emergence herbicidal action against LOLRI; assay type: in vivo, Lolium rigidum; settings: Lolium rigidum, 504 h, dosage 20 g/ha
In short: as §2

PHBPU [15] = assay: Post-emergence herbicidal action against PHBPU; assay type: in vivo, Pharbitis purpurea; settings: Ipomoea purpurea, 504 h, dosage 20 g/ha
In short: as §2

SETVI [16] = assay: Post-emergence herbicidal action against SETVI; assay type: in vivo, Setaria viridis; settings: Setaria viridis, 504 h
In short: as §2

STEME [17] = assay: Post-emergence herbicidal action against STEME; assay type: in vivo, Stellaria media; settings: Stellaria media, 504 h, 20 g/ha
In short: as §2

VERPE [18] = assay: Post-emergence herbicidal action against VERPE; assay type: in vivo, Veronica persica; settings: Veronica persica, 504 h, 20 g/ha
In short: as §2

VIOTR [19] = assay: Post-emergence herbicidal action against VIOTR; assay type: in vivo, Viola tricolor; settings: Viola tricolor, 504 h
In short: as §2

DIGSA [20] = assay: Post-emergence herbicidal action against DIGSA; assay type: in vivo, Digitaria sanguinalis; settings: Digitaria sanguinalis, 504 h, 20 g/ha
In short: as §2

## Cn1nnnc1NC(=O)c1ccc(C(F)(F)F)c(C(=O)NC2CC2)c1Br [Example 1-209]
ABUTH [1]; 80 g/ha, scored visually after 3 weeks vs untreated controls (100% = plants have died, 0% = like control plants)
  pest or weed control at 80 g/ha: 100%
ABUTH [1]; dosage 20 g/ha, scored visually after 3 weeks vs untreated controls, 100% = plants have died, 0% = like control plants, read-out: Pre-emergence action against ABUTH (herbicidal activity in percent)
  pest or weed control at 20 g/ha: 100%
ALOMY [2]
  pest or weed control at 80 g/ha: 80%
AMARE [3]; 20 g/ha
  pest or weed control at 20 g/ha: 100%
AMARE [3]; 80 g/ha
  pest or weed control at 80 g/ha: 100%
AVEFA
  pest or weed control at 80 g/ha: 100%
ECHCG [4]
  pest or weed control at 80 g/ha: 90%
HORMU
  pest or weed control at 80 g/ha: 80%
MATIN; dosage 20 g/ha
  pest or weed control at 20 g/ha: 80%
MATIN; dosage 80 g/ha
  pest or weed control at 80 g/ha: 100%
PHBPU [5]
  pest or weed control at 80 g/ha: 80%
SETVI [6]; dosage 20 g/ha
  pest or weed control at 20 g/ha: 90%
SETVI [6]; dosage 80 g/ha
  pest or weed control at 80 g/ha: 100%
STEME [7]
  pest or weed control at 80 g/ha: 90%
VERPE [8]; dosage 20 g/ha
  pest or weed control at 20 g/ha: 90%
VERPE [8]; dosage 80 g/ha
  pest or weed control at 80 g/ha: 100%
VIOTR [9]
  pest or weed control at 80 g/ha: 100%
DIGSA [10]; dosage 20 g/ha
  pest or weed control at 20 g/ha: 100%
DIGSA [10]; dosage 80 g/ha
  pest or weed control at 80 g/ha: 100%
ABUTH [11]; dosage 5 g/ha
  pest or weed control at 5 g/ha: 90%
ABUTH [11]; dosage 20 g/ha
  pest or weed control at 20 g/ha: 100%
ALOMY [12]
  pest or weed control at 20 g/ha: 80%
AMARE [13]
  pest or weed control at 20 g/ha: 100%
ECHCG [14]
  pest or weed control at 20 g/ha: 90%
LOLRI
  pest or weed control at 20 g/ha: 80%
PHBPU [15]
  pest or weed control at 20 g/ha: 90%
SETVI [16]; dosage 5 g/ha
  pest or weed control at 5 g/ha: 100%
SETVI [16]; dosage 20 g/ha
  pest or weed control at 20 g/ha: 100%
STEME [17]
  pest or weed control at 20 g/ha: 90%
VERPE [18]
  pest or weed control at 20 g/ha: 80%
VIOTR [19]; 5 g/ha
  pest or weed control at 5 g/ha: 100%
VIOTR [19]; 20 g/ha
  pest or weed control at 20 g/ha: 100%
DIGSA [20]
  pest or weed control at 20 g/ha: 90%
